These results are taken from patent US20010049372A1, “Antiviral nucleoside analogues” (BioChem Pharma Inc., priority 1998, published 2001).

Where two headings read alike, the source gives them in different places.

One data set concerns NNRTI^R. Nature of the data set: Recombinant drug resistant HIV-1 variants (RT activity). It is filed as cell-based. The following applies: Human immunodeficiency virus 1. How it is done:
(§1) ANTIVIRAL ASSAYS. The anti-HIV-1 activity of the compound A (−) were assessed by employing HIV-1IIIB in a variety of cell types as previously described (Gu et al., 1992, 1994, 1999; Rando et al., 1995; Salomon et al., 1994). Briefly, cells were incubated with virus at a multiplicity of infection (MOI) of 0.005 for T cell assays and an MOI of 0.5 for monocytic cell assays for 3 hrs. Unbound virus was then removed by washing the cells, followed by seeding the cells into a 96-well plate. The infected cells were cultured in the presence of a serial concentrations of the test compound for 5-7 days. The anti-HIV-1 efficacy was determined by testing for HIV-1 RT activity or p24 level in the cell culture supernatants. All assays were performed in duplicate. Zidovudine and/or lamivudine were used as controls in each experiment.
(§2) Recombinant HIV-1 variants were prepared by introducing the designed mutations into HXB2-D by site-directed mutagenesis as described (Gu et al. 1992, 1994). The virus stocks were prepared by transfecting MT-4 cells with infectious viral DNA constructs. Antiviral activity of the compound A (−) was evaluated as described in example 10.

In the next data set the test system is 105/A (wt). Nature of the data set: Drug-resistant clinical isolates in PBMCs (p24). It is filed as cell-based, HIV-1. The following applies: Human immunodeficiency virus 1, PBMC. As to the method:
as §1
(§3) Clinical strains were isolated from PBMCs of HIV-1 infected individuals through co-culture with PBMCs from normal dornors. To determine the RT genotype of the HIV-1 clinical isolates, the proviral DNA was extracted from infected CD4^+ T-cells or PBMCs and the complete RT coding regions were amplified by PCR as previously reported (Gu et al 1992). The PCR product was purified and then directly sequenced using primer RTS (5′-CCAAAAGTTAAACAATGGC-3′) which is located at the 5′ portion of the RT coding region (nucleotide 2603-2621 of HXB2-D coordinates). Antiviral activity was evaluated as described in example 10.

For the next data set, the system named is 105/F (zidovudine^R). In words: Drug-resistant clinical isolates in PBMCs (p24). The following applies: Human immunodeficiency virus 1, PBMC. It counts as cell-based, HIV-1. As to the method:
as §1, §3

A further data set relates to CCR15 (Lamivudine^R). Nature of the data set: Drug-resistant clinical isolates in PBMCs (p24). It is filed as cell-based, HIV-1. The following applies: Human immunodeficiency virus 1, PBMC. As to the method:
as §1, §3

For another data set, the system named is CCR18 (Lamivudine^R). Nature of the data set: Drug-resistant clinical isolates in PBMCs (p24). It is filed as cell-based, HIV-1. The following applies: Human immunodeficiency virus 1, PBMC. As to the method:
as §1, §3

A further data set has as its system CCR19 (Lamivudine^R). In words: Drug-resistant clinical isolates in PBMCs (p24). It counts as cell-based, HIV-1. The following applies: Human immunodeficiency virus 1, PBMC. As to the method: as §1, §3
A further data set concerns HIV-1IIIB. Nature of the data set: Anti-HIV-1 antiviral assay with HIV-1IIIB in various cell types (RT activity). It is filed as cell-based. As to the method: as §1
Activity of the compound A (−) against HIV-1 in various cells. Anti-HIV-1 activity of the compound A (−) were tested in different types of cells, including human peripheral […] cells (PBMCs), T-cell (MT-2 and MT-4) and monocytic cell (U937) lines. The compound A (−) had submicromolar EC50s against HIV-1IIIB in different types of cells tested (Table 2).

The nature of data set [1]: Cellular toxicity by WST-1 staining. It is filed as cell-based. The following applies: human, CBMCs, Table 4, day 7, read-out: CC50 (μM) WST-1 CBMC. How it is done: (§4) The cellular toxicity of the compounds were assessed on various cells using [^3H]-thymidine uptake. Various cells, including Molt-4, HT1080, DU-145, HepG-2 and HSF, were plated at a concentration of 1-2×10^3 cells per well (96 well plates). After a 24 hr incubation period, 10-fold serial diluted compounds (b 10^−4 M to 10^−10 M) were added to the culture medium and the cells were further incubated for 72 hrs. [^3H]-thymidine was added during the final 18 hr incubation period. After incubation with the [^3H]-thymidine, the cells were washed once with PBS, treated with trypsin if the cells were adherent, and then resuspended in water (hypotonic lysing of cells). The cellular extract was applied directly to a Tomtec Harvester 96. Using this instrument the extracted DNA is adsorbed onto filters, washed and the incorporated [^3H]-thymidine is then counted. The 50% cytotoxic concentration (CC50) was determined by comparing the radioactive counts per minute of the samples in the presence of the compounds against the control. The cellular toxicity of the compounds was also tested by WST-1 staining through assessing proliferation of MT-2, H9, Jurkat, U937, and CBMCs. The established cell lines were cultured in RPMI medium in 96-well plates at a density of 5×10^4 cells/well while CBMCs were plated at a concentration of 0.5×10^6/well. A 10-fold serial diluted (10^−4-10^−7 M) compound was added at day zero. At day 4, the cells were passaged by changing half medium containing appropriately diluted compound. The cell activities were assessed at day 7 using the WST-1 reagent (Boehringer Mannheim) following the protocol provided by the supplier.
In the WST-1 staining experiments, cell lines were cultured in RPMI medium in 96-well plates at a density of 5×10^4 cells/well. CBMCs were plated at a concentration of 0.5×10^6/well. Compounds (10^−4-10^−7 M) were added at day zero. Cell viability was assessed on day 7 using the WST-1 reagent (Boehringer Mannheim) following the protocol provided by the supplier.

Data set [2] in a line: Cellular toxicity by [3H]-thymidine uptake. It counts as cell-based, human. The following applies: human, Table 14, PHA-stimulated PBMCs, read-out: CC50 (μM) [^3H]TTP incorporation in: PBMC. How it is done: (§5) Cellular toxicity was assessed by [^3H]thymidine uptake (de Muys et al. 1999) and WST-1 staining. In the [^3H]thymidine uptake experiments, Molt-4, HT1080, DU-145, HepG2 and HSF, were plated at a concentration of 1-2×10^3 cells per well (96 well plates). PHA-stimulated PBMCs were cultured at a concentration of 4×10^4 cells per well. Following a 24 hr pre-incubation period, test compounds (10^−4 M to 10^−10 M) were added and the cells were incubated for an additional 72 hrs. [^3H]thymidine was added during the final 18 hr incubation period. The cells were then washed once with PBS, treated with trypsin if the cells were adherent, and resuspended in water (hypotonic lysing of cells). The cellular extract was applied directly to a Tomtec Harvester 96. The 50% cytotoxic concentration (CC50) was determined by comparing the radioactive counts per minute obtained from drug-tested samples to those obtained from the control (untreated) cells.

A further data set deals with PBMCs. Nature of the data set: Cellular toxicity by [3H]-thymidine uptake. It is filed as cell-based, human. The following applies: Table 4; 72 hrs. As to the method:
as §5

A short description of data set [3]: Cellular toxicity by [3H]-thymidine uptake. The following applies: human. It is filed as cell-based. As to the method: as §4, §5
The next data set relates to HXB2-D (wt). In words: Recombinant HIV-1 variants (RT activity). It counts as cell-based. The following applies: Human immunodeficiency virus 1, HXB2. How it is done: as §1, §2
The next data set relates to PI^R. In words: Recombinant drug resistant HIV-1 variants (RT activity). It counts as cell-based. The following applies: Human immunodeficiency virus 1. How it is done: as §1, §2
[4] abbreviates: Human immunodeficiency virus 1, MT2, HIV-1IIIB, MT-2 cells, determined by RT activity, read-out: EC50 (μM) ± S.D. in MT-2 cells.

Turning to `Cc1ccnc2c1NC(=O)c1cccnc1N2C1CC1` [nevirapine], the 50% effective concentration (EC50) in the data set with NNRTI^R was > 10 µM.

Consider `Nc1ncnc2c1ncn2CCOCP(=O)(O)O` [Adefovir, adefovir], for which the IC50 in the data set on 105/A (wt) is 2 µM; in the data set on 105/F (zidovudine^R) it was 7 µM; in the data set on CCR15 (Lamivudine^R), 0.8 µM; in the data set on CCR18 (Lamivudine^R) it was 2.1 µM; in the data set on CCR19 (Lamivudine^R), 2.3 µM.

Regarding `Cc1cn([C@H]2C=C[C@@H](CO)O2)c(=O)[nH]c1=O` [Stavudine, stavudine], in the data set on HIV-1IIIB (Human immunodeficiency virus 1, MT2, read-out: EC50 (μM) ± S.D. in MT-2 cells), the EC50 amounted to 0.38 ± 0.26 µM. In addition, the 50% inhibitory concentration (IC50) with 105/A (wt) was determined as 0.063 µM; with 105/F (zidovudine^R) it was 0.12 µM; in the data set with CCR15 (Lamivudine^R), 0.06 µM; with CCR18 (Lamivudine^R) it was 0.049 µM; in the data set with CCR19 (Lamivudine^R), 0.05 µM.

Consider `Nc1ccn([C@H]2CC[C@@H](CO)O2)c(=O)n1` [Zalcitabine, zalcitabine], for which the 50% effective concentration (EC50) in the data set on HIV-1IIIB (setting [4]) amounted to 0.05 µM. In data set [1], the CC50 at 7 days came to 29 µM. Also, the CC50 at 72 h stood at 35.5 µM in data set [2]; 5 µM in data set [3] (DU-145 cells, Table 4, read-out: CC50 (μM) [^3H-]TTP incorporation in: U-145); 3.5 µM in [3] (DU-145 cells, Table 14, read-out: CC50 (μM) [^3H]TTP incorporation in: U145); 2 µM in data set [3] (HSF cells, Table 14, read-out: CC50 (μM) [^3H]TTP incorporation in: HSF); 2 µM in data set [3] (HT1080 cells, Table 4, read-out: CC50 (μM) [^3H-]TTP incorporation in: HT1080); 2.5 µM in data set [3] (HT1080 cells, Table 14, read-out: CC50 (μM) [^3H]TTP incorporation in: HT800). For the same compound, the CC50 at 72 h in data set [3] (HepG2 cells, Table 4, read-out: CC50 (μM) [^3H-]TTP incorporation in: HepG2) turned out to be 7 µM; in data set [3] (HepG2 cells, Table 14, read-out: CC50 (μM) [^3H]TTP incorporation in: HepG2) it was 6.5 µM; in [3] (Molt-4 cells, Table 4, read-out: CC50 (μM) [^3H-]TTP incorporation in: Molt-4) it was 2 µM; in data set [3] (Molt-4 cells, Table 14, read-out: CC50 (μM) [^3H]TTP incorporation in: Molt4), 1 µM. The “CC50 (μM) [^3H-]TTP incorporation in: PBMC” value in the data set on PBMCs was 50/15.

Consider `Nc1nc(NC2CC2)c2ncn([C@H]3C=C[C@@H](CO)C3)c2n1` [Abacavir, abacavir], for which, in the data set on HIV-1IIIB (setting [4]), the EC50 was 0.1 µM. In addition, the half-maximal inhibitory concentration (IC50) with 105/A (wt) is < 0.03 µM; in the data set with 105/F (zidovudine^R) it was 0.07 µM; in the data set with CCR15 (Lamivudine^R), 0.22 µM; in the data set on CCR18 (Lamivudine^R), 1.3 µM; with CCR19 (Lamivudine^R), 0.58 µM.

Take `CC(C)(C)NC(=O)[C@@H]1C[C@@H]2CCCC[C@@H]2CN1C[C@@H](O)[C@H](Cc1ccccc1)NC(=O)[C@H](CC(N)=O)NC(=O)c1ccc2ccccc2n1` [saquinavir]: the EC50 in the data set with HXB2-D (wt) came to 0.0015 µM; in the data set with PI^R, 0.028 µM.
